Source: article PMC9862588, “The Bi-Functional Paxilline Enriched in Skin Secretion of Tree Frogs (Hyla japonica) Targets the KCNK18 and BKCa Channels” (Toxins, 2023)

Biological target: T1, KCNK18 (Rattus norvegicus, UniProt Q6Q1P3)
T1 sequence (Q6Q1P3 1-405): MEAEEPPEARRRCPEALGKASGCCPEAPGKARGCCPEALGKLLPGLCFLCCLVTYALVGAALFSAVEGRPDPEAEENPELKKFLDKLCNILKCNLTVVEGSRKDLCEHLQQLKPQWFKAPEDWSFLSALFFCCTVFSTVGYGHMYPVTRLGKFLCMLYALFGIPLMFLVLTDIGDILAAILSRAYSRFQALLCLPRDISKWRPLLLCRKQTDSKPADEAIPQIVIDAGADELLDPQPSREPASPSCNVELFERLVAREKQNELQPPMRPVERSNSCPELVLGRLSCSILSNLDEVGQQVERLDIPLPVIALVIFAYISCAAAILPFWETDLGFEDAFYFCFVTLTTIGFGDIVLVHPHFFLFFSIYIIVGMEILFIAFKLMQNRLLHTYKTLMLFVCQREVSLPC
Assay: whole-cell patch clamp of transfected HEK293 cells, dose-response; loss of effect on F375 swap and F167A
Type: cell-based

SMILES: CC(C)(O)[C@H]1O[C@H]2CC[C@@]3(C)[C@@](O)(CC[C@H]4Cc5c([nH]c6ccccc56)[C@@]43C)C2=CC1=O [PAX, Paxilline]
- IC50: 4.13 ± 0.04 µM
